Test results from ChEMBL document CHEMBL1201862, “PubChem BioAssay data set” (2004).
Calls of active or inactive are those of the source.

What was measured:
[1] = molecular target: T1, Heat shock factor protein 1 (Mus musculus, UniProt P38532); assay: HSF1 potentiators in luciferase reporter cells, confirmation, cell-based, NIH3T3, luminescence, dose retest (AID 435004); assay type: functional;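 further: stress induced by proteasome inhibitor MG132 added 30 min after compound; luciferase reporter driven by HSF1 response element in NIH3T3 cells; actives raise luminescence as potentiators of the MG132 stress response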
T1 sequence (P38532 whole entry): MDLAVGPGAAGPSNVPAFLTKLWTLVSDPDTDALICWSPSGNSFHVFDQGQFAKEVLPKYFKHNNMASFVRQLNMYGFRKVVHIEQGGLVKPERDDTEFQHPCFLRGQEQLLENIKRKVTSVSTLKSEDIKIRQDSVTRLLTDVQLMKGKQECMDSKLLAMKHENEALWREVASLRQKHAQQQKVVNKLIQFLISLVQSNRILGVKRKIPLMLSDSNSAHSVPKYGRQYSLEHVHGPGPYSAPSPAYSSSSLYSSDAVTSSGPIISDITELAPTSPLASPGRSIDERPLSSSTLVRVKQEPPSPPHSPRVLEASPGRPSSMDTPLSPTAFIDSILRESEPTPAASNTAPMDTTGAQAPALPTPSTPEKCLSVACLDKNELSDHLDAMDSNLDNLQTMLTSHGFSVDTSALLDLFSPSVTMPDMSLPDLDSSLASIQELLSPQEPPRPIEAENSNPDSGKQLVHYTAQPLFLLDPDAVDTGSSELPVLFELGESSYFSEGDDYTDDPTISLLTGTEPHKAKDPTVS

[2] = molecular target: COUP transcription factor 2 (Homo sapiens, UniProt P24468); assay: Luminescence-based cell-based high throughput dose response assay to identify inhibitors of COUP-TFII (NR2F2).; assay type: functional;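 further: HEK293 cells transiently cotransfected with COUP-TFII expression vector and reporter; luciferase reporter luminescence driven by COUP-TFII from the pX2-168 reporter plasmid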
Chain of COUP transcription factor 2 (P24468 whole entry): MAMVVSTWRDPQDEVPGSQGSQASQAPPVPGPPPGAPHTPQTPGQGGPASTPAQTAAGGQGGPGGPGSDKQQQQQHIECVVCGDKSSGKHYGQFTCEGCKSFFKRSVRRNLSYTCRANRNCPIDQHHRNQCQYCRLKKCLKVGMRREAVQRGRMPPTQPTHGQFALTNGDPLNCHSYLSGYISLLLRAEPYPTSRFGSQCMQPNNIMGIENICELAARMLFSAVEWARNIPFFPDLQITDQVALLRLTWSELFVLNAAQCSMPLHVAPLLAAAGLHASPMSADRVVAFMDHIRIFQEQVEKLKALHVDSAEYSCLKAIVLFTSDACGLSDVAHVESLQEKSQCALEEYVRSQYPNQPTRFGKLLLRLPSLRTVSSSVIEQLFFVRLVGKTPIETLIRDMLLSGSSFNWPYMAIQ

[3] = HepG2 cell cytotoxicity, dose response, cytotoxicity control, ATP luminescence, cherry-pick, set 6 (AID 1053125); assay type: functional, cell-based
cells = details: HEK293;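 further: cells exposed to compound for 48 hours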
[4] = MITF Orthogonal Assay: SK-MEL-5 CTG Assay Measured in Cell-Based System Using Plate Reader - 2084-02_Inhibitor_Dose_DryPowder_Activity_Set7.; assay type: functional
[5] = MITF: Counter assay: A375 proliferation Measured in Cell-Based System Using Plate Reader - 2084-03_Inhibitor_Dose_DryPowder_Activity_Set8.; assay type: functional; details: A-375
[6] = TRPM1 promoter luciferase reporter signal decrease, dose response, MITF inhibitor project, cell-based, SK-MEL-5, dry powder, set 8 (AID 624430); assay type: functional
[7] = molecular target: Disintegrin and metalloproteinase domain-containing protein 17 (Homo sapiens, UniProt P78536); assay: exosite inhibitors of ADAM17, dose response, biochemical (AID 743260)
Chain of Disintegrin and metalloproteinase domain-containing protein 17 (P78536 whole entry, the tested form may be a part): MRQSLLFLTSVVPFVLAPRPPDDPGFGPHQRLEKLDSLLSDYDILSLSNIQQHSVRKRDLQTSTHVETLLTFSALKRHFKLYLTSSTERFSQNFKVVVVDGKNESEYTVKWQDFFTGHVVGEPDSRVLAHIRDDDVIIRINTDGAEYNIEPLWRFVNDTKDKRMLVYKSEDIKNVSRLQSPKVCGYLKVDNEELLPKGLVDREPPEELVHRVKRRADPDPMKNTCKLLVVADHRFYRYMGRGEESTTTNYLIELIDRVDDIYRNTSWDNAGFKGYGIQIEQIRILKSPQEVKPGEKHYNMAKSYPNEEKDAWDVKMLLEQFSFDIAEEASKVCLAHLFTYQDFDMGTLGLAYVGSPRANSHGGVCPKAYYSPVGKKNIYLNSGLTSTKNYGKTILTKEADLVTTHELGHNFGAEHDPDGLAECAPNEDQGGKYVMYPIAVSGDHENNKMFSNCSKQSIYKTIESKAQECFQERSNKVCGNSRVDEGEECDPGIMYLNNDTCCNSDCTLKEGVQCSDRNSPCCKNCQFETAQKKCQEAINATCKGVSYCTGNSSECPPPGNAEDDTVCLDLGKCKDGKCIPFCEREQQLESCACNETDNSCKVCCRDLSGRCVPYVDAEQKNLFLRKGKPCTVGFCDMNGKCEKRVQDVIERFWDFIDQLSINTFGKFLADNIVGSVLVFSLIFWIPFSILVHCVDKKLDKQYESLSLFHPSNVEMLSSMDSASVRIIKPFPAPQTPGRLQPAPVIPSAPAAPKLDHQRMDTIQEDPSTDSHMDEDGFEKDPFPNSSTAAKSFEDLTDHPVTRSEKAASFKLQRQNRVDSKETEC

[8] = ADAM10 protease inhibitors, dose response, selectivity assay for ADAM17 exosite inhibitor project, biochemical, FRET peptide substrate, recombinant human ADAM10 (AID 743259);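 further: ADAM10 enzyme cleaving a FRET peptide substrate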
[9] = A375 melanoma cell viability loss, dose response, counter-screen for MITF inhibitor project, CellTiter-Glo luminescence, dry powder, set 4 (AID 624364); assay type: functional, cell-based; details: A-375;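 further: A375 melanoma cells are MITF independent so this is a counter screen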
[10] = A375 melanoma cell cytotoxicity, dose response, counter-screen for MITF inhibitor project, CellTiter-Glo luminescence, dry powder, set 2 (AID 624489); assay type: functional, cell-based;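 further: actives are compounds lowering A375 viability meaning general cytotoxicity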
[11] = HEK293T cell cytotoxicity, dose response, cytotoxicity control, luminescence plate reader, powder samples, set 4 (AID 651863); assay type: functional, cell-based; details: HEK293
[12] = inhibitors of HIV Env-driven cell fusion, dose response, cherry-pick (AID 652057); assay type: functional, cell-based
HEK293 = assay: HEK293T cell cytotoxicity, dose response, cytotoxicity control, ATP luminescence, cherry-pick samples (AID 687005); assay type: functional, cell-based; details: Homo sapiens;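 further: cells exposed to compound for 48 hours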
[13] = inhibitors of clade B AD8 Env fusion, dose response, cell-based, cherry-pick (AID 652062); assay type: functional;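 further: luciferase signal from cell-cell fusion driven by HIV-1 clade B AD8 Env; potency is for inhibitors of fusion seen as a drop in luminescence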
[14] = HIV Env cell-cell fusion inhibitors, dose response, HIV entry, plate reader, dry powder (AID 687023); assay type: functional, cell-based
[15] = HEK293 Cytotoxicity Assay Measured in Cell-Based System Using Plate Reader - 7071-01_Inhibitor_Dose_CherryPick_Activity_Set2.; assay type: functional
fMet-Leu-Phe receptor = fMet-Leu-Phe receptor (Homo sapiens, UniProt P21462); assay: FPR ligands, dose response (AID 519); assay type: functional
Chain of fMet-Leu-Phe receptor (P21462 whole entry): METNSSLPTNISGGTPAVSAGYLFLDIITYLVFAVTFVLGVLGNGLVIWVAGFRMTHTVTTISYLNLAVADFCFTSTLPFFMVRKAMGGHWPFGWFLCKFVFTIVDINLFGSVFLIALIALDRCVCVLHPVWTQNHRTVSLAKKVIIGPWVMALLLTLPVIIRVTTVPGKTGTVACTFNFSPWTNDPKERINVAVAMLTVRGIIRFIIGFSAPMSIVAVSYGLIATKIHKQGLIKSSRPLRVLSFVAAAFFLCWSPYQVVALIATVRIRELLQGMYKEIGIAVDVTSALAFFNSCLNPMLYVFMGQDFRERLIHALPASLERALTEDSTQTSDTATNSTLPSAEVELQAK

[16] = NIH/3T3 fibroblast cytotoxicity, dose response, cytotoxicity control, cell-based, plate reader, dry powder, set 2 (AID 652280); assay type: functional; details: NIH3T3
[17] = T. cruzi growth inhibition in host cells, dose response, cell-based, plate reader, dry powder, set 2 (AID 652275); assay type: functional
[18] = growth inhibition of intracellular T. cruzi, dose response, cell-based, plate reader, dry powder samples (AID 651845); assay type: functional
[19] = NIH/3T3 fibroblast cytotoxicity, dose response, cytotoxicity control, cell-based, dry powder samples (AID 651844); assay type: functional; details: NIH3T3

Cc1ccc(-n2nc3c(=O)n(C(C)C(=O)NCc4ccccc4Cl)nc(C)c3c2C)cc1 (stereo not drawn)
EC50 [1]: > 260 µM (inactive) | IC50 [2]: 11.9 µM (inactive)

Cc1ccc(OCC(=O)NNc2c3ccccc3nc3ccccc23)cc1
AC50 [3]: > 52 µM (inactive) | AC50 (cells): 27.7 µM (active)

O=C1C=C(Nc2ccccc2Cl)C(=O)c2ccccc21
AC50 [4]: 0.172 µM (active) | AC50 [5]: > 70 µM (inactive) | AC50 [6]: 5.41 µM (active)

COC(=O)C1=C(C)N(Cc2cccc(C(F)(F)F)c2)C(NCc2ccc3c(c2)OCO3)=NC1c1ccc(F)cc1 (stereo not drawn)
IC50 [7]: > 69.5 µM (inactive) | IC50 [8]: > 69.5 µM (inactive)

O=C1C(Nc2ccccc2)=C(N2CCOCC2)C(=O)c2ccccc21
AC50 [9]: > 70 µM (inactive) | AC50 [10]: 65.7 µM (active) | AC50 ([10]; A-375): > 70 µM (inactive)

Cc1cc(C)c(S(=O)(=O)Nc2ncnc3ccccc23)c(C)c1
AC50 [11]: 44.2 µM (active)

C[C@H]1CCCCO[C@@H](CN(C)Cc2ccncc2)[C@@H](C)CN([C@@H](C)CO)C(=O)c2cc(NC(=O)Nc3ccccc3)ccc2O1
AC50 [12]: 0.764 µM (active) | AC50 (HEK293): 33.2 µM (active) | AC50 [13]: 32.9 µM (active) | AC50 [14]: 10.7 µM (active) | AC50 [15]: 33.2 µM (active)

CCCC(=O)Nc1cc(-c2cn3cccnc3n2)ccc1OC
Ki (fMet-Leu-Phe receptor): > 66.7 µM (inactive)

CC(C)N1C[C@H](C)[C@@H](CN(C)Cc2ccc(Oc3ccccc3)cc2)Oc2c(NC(=O)C3CCNCC3)cccc2C1=O
AC50 [16]: 8.99 µM (active) | AC50 [17]: 0.983 µM (active) | AC50 [18]: 0.983 µM (active) | AC50 [19]: 8.99 µM (active)
